Data from article PMC4193996 (Journal of Experimental & Clinical Cancer Research : CR, 2014).

Columns and labels:
[1] = system: hairpin duplex, 5'-biotin-CGA3T3C(CT)2GA3T3CG (DNA, hairpin) CGAAATTTCCTCTGAAATTTCG; assay: SPR
[2] = system: h-Tel quadruplex DNA sequence 5'-d[AGGG(TTAGGG)3]-3'; assay: SPR binding to quadruplex DNA; set-up: species or system human
Protocol: (§1) Oligonucleotides 5’-biotin-d [AG3 (T2AG3)3] quadruplex and 5’-biotin-CGA3T3C(CT)2GA3T3CG were purchased from Midland Certified Reagent Company (Midland, TX). Purification of DNA, preparation of solutions, collection of data, and analysis of results were conducted according to methods adopted in an earlier study.
(§2) This technique takes advantage of the refractive index change elicits by the binding of the drug with the h-Tel quadruplex DNA sequence 5’-d[AGGG(TTAGGG)3]-3’ or an alternating hairpin duplex sequence immobilized on a sensor chip surface.

[3] = system: alternating hairpin duplex sequence 5'-biotin-CGA3T3C(CT)2GA3T3CG; assay: SPR binding to duplex DNA
Protocol: as §1, §2

[4] = system: human colon cancer cell line HT-29; assay: MTT proliferation assay, HT-29; assay type: cell-based; details: 96 hours
Protocol: Normal WI-38 diploid human lung fibroblasts and the human colorectal adenocarcinoma HT29 cells were obtained from American Type Culture Collection (Manassas, VA, USA). BJ fibroblasts expressing hTERT and SV40 early region (BJ-EHLT) were obtained as previously reported. Cells were grown in Dulbecco Modified Eagle Medium (D-MEM, Invitrogen Carlsbad, CA, USA) supplemented with 10% fetal calf serum, 2 mM L-glutamin and antibiotics.
MTT (3-(4,5-Dimethylthiazol-2-yl)-2,5-diphenyltetrazolium Bromide) assay was performed in treated and untreated cells for 96 hours. Cells were incubated with MTT solution (Sigma-Aldrich), and the purple formazan crystals were dissolved in isopropanol. Optical densities (OD) at 540 nm was determined on microplate reader.
Firstly, we investigated if they were able to efficiently promote growth inhibition of tumor cells without affecting the survival of normal cells in vitro. In Table 1 we report for each compound the concentration causing 50% of growth inhibition (GI50) calculated by performing a proliferation assay in the human colon cancer cell line HT-29 or in the human ‘normal’ lung WI-38 cells. […] On the basis of results described so far, we decided to exclude from the further analysis ligand 10 for its high value of hERG inhibition (95%) (Table 1).

[5] = system: BJ-EHLT fibroblasts; assay: γ-H2AX/TRF1 colocalization (TIFs, telomere uncapping); assay type: cell-based, human
Protocol: (§3) Cells were fixed in 2% formaldehyde and permeabilized in 0.25% Triton X100 in PBS for 5 min at room temperature. For immunolabeling, cells were incubated with primary antibody, then washed in PBS and incubated with the secondary antibodies. The following primary antibodies were used: pAb and mAb anti-TRF1(Abcam Ltd.; Cambridge UK); mAb (Upstate, Lake Placid, NY) and pAb anti-γH2AX (Abcam); mAb anti-PCNA (Sigma Chemicals, Milano, Italy). The following secondary antibody were used: TRITC conjugated Goat anti Rabbit, FITC conjugated Goat anti Mouse (Jackson ImmunoResearch Europe Ltd., Suffolk, UK). Fluorescence signals were recorded by using a Leica DMIRE2 microscope equipped with a Leica DFC 350FX camera and elaborated by a Leica FW4000 deconvolution software (Leica, Solms, Germany). This system permits to focus single planes inside the cell generating 3D highresolution images. For quantitative analysis of γH2AX positivity, 200 cells on triplicate slices were scored. For TIFs analysis, in each nucleus a single plane was analyzed and at least 50 nuclei per sample were scored.
Unfortunately, we were not able to test compounds 4, 5 and the 0,5 μM dose of 3 as they were fluorescent in both red and green channels. […] To ascertain whether γ-H2AX was phosphorylated in response to dysfunctional telomeres, double immunofluorescence experiments were processed by confocal microscopy. We observed that some of the γ-H2AX foci induced by G4-ligands colocalized with TRF1, a good marker for interphase telomeres, forming the so-called telomere dysfunction-induced foci (TIFs) (Figure 2B).
Figure 2 DNA damage activation at telomeres. BJ-EHLT fibroblasts were treated for 24 hrs with compound 1 and the indicated ligands at the doses 0.1 (light-grey bars) and 0.5 μM (dark-grey bars). Cells were processed for immunofluorescence (IF) using antibodies against γ-H2AX and TRF1 to mark DNA damage and telomeres respectively. Percentages of γ-H2AX- (A) and TIF-positive (B) treated and untreated cells are reported in the histograms. (C) Mean number of TIFs in the indicated samples. Cells with four or more γ-H2AX/TRF1 foci were scored as TIF positive. Error bars indicate the standard deviation. (D) Representative images of IF of untreated and 1, 3, 6 and 8-treated BJ-EHLT cells. Enlarged views of TIFs are reported on the right of the merged images. The images were acquired with a Leica Deconvolution microscope (magnification 100x). (E) Cells treated as in (A) were processed for IF of γ-H2AX and PCNA to mark replicating cells. Percentage of γ-H2AX+/PCNA- or γ-H2AX+/PCNA + nuclei in the indicated samples are reported in the histograms.

[6] = system: BJ-EHLT fibroblasts; assay: γ-H2AX/PCNA co-immunostaining (replication-dependent DNA damage); assay type: cell-based, human; details: 24 hrs
Protocol: as §3
Figure 2 DNA damage activation at telomeres. BJ-EHLT fibroblasts were treated for 24 hrs with compound 1 and the indicated ligands at the doses 0.1 (light-grey bars) and 0.5 μM (dark-grey bars). […] Cells with four or more γ-H2AX/TRF1 foci were scored as TIF positive. […]

K [1]: 900000 M⁻¹ | Quadruplex DNA affinity K [2]: 14,2 x10^6 M^−1 | Quadruplex/duplex ratio ([2]; quadruplex vs duplex affinity): 15,8 | Duplex DNA affinity K [3]: 0,9 x10^6 M^−1 | GI50 [4]: 750 nM
Structure (SMILES): CC(=O)NCC#Cc1ccc2c3cccc4c3c([n+](C)c2c1)-c1ccccc1N4C [Compound 8]
mean TIFs per nucleus ([5]; 24 hrs): about seven | percentage of cells with more than four γ-H2AX/TRF1 colocalizations (TIF-positive) ([5]; 24 hrs, 0,5 μM): ~40% | γ-H2AX foci formation relative to PCNA status [6]: almost exclusively restricted to PCNA-positive
